Assay results: DBAASP
Converted amounts (≈) assume the structure as drawn.

Columns and labels:
Test in all cases: ≥ marks a high value that may be exact or a test limit, other limits are often not marked, values filed in µg/mL are converted to µM
[1] = system: Staphylococcus aureus ATCC 6538
[2] = system: Pseudomonas aeruginosa ATCC 9027
[3] = system: Escherichia coli KCTC 1682
[4] = system: Staphylococcus epidermidis KCTC 1917
[5] = system: Pseudomonas aeruginosa KCTC 1637
[6] = system: Staphylococcus aureus KCTC 1621
[7] = system: Bacillus subtilis KCTC 3068
[8] = system: Salmonella typhimurium KCTC 1926

Row | Compound | MIC [1] [µM] | MIC [2] [µM] | MIC [3] [µM] | MIC [4] [µM] | MIC [5] [µM] | MIC [6] [µM] | MIC [7] [µM] | MIC [8] [µM]
1 | CC(C)C[C@H](NC(=O)[C@H](C)NC(=O)[C@H](CCCCN)NC(=O)[C@H](CC(C)C)NC(=O)[C@H](C)NC(=O)[C@H](CCCCN)NC(=O)[C@H](CC(C)C)NC(=O)[C@H](CC(C)C)NC(=O)[C@H](C)NC(=O)[C@H](CCCCN)NC(=O)[C@H](CC(C)C)NC(=O)[C@H](C)NC(=O)[C@H](CCCCN)NC(=O)[C@H](C)NC(=O)[C@@H](N)Cc1ccccc1)C(N)=O [FAKALKALLKALKAL] | 3.13 (≈ 5 µg/mL) | > 125 | – | – | – | – | – | –
2 | CC(C)C[C@H](NC(=O)[C@H](CC(C)C)NC(=O)[C@H](CCCCN)NC(=O)[C@H](CCCCN)NC(=O)[C@H](C)NC(=O)[C@H](CC(C)C)NC(=O)[C@H](CCCCN)NC(=O)[C@H](C)NC(=O)[C@@H](N)Cc1ccccc1)C(N)=O [FAKLAKKLL] | 194 (≈ 200 µg/mL) | 97 (≈ 99.9 µg/mL) | – | – | – | – | – | –
3 | CC(C)C[C@H](NC(=O)[C@H](C)NC(=O)[C@H](Cc1ccccc1)NC(=O)[C@H](CCCCN)NC(=O)[C@H](CCCCN)NC(=O)[C@H](CC(C)C)NC(=O)[C@H](C)NC(=O)[C@H](CCCCN)NC(=O)[C@H](C)NC(=O)[C@H](CC(C)C)NC(=O)[C@H](CC(C)C)NC(=O)[C@H](CCCCN)NC(=O)[C@H](C)NC(=O)[C@@H](N)Cc1ccccc1)C(N)=O [FAKLLAKALKKFAL] | 32 (≈ 50 µg/mL) | 16 (≈ 25 µg/mL) | – | – | – | – | – | –
4 | CC(C)C[C@H](NC(=O)[C@H](CCCCN)NC(=O)[C@H](CC(C)C)NC(=O)[C@H](CCCCN)NC(=O)[C@H](C)NC(=O)[C@H](CC(C)C)NC(=O)[C@H](CCCCN)NC(=O)[C@H](C)NC(=O)[C@H](CC(C)C)NC(=O)[C@H](CC(C)C)NC(=O)[C@H](CCCCN)NC(=O)[C@H](C)NC(=O)[C@@H](N)Cc1ccccc1)C(N)=O [FAKLLAKLAKLKL] | 3.43 (≈ 5 µg/mL) | 34.3 (≈ 50 µg/mL) | – | – | – | – | – | –
5 | CC(C)C[C@H](NC(=O)[C@H](C)NC(=O)[C@H](Cc1c[nH]c2ccccc12)NC(=O)[C@H](CCCCN)NC(=O)[C@H](CC(N)=O)NC(=O)[C@H](Cc1c[nH]c2ccccc12)NC(=O)[C@H](CCCCN)NC(=O)[C@H](CCCCN)NC(=O)[C@H](CCCN=C(N)N)NC(=O)[C@@H](N)Cc1ccccc1)C(=O)N[C@@H](CO)C(=O)N[C@@H](CCCN=C(N)N)C(N)=O [FRKKWNKWALSR] | – | – | 4 (≈ 6.48 µg/mL) | 8 (≈ 13 µg/mL) | 16 (≈ 25.9 µg/mL) | 16 (≈ 25.9 µg/mL) | 8 (≈ 13 µg/mL) | 4 (≈ 6.48 µg/mL)
6 | CC[C@H](C)[C@H](N)C(=O)NCC(=O)N[C@@H](CCCCN)C(=O)N[C@@H](CCCCN)C(=O)N[C@@H](Cc1ccccc1)C(=O)N[C@@H](CCCCN)C(=O)N[C@@H](CCCN=C(N)N)C(=O)N[C@H](C(=O)N[C@H](C(=O)N[C@@H](CCCCN)C(=O)N[C@@H](CCCN=C(N)N)C(=O)N[C@H](C(=O)N[C@@H](CCCCN)C(=O)N[C@@H](CCCCN)C(=O)N[C@@H](Cc1c[nH]c2ccccc12)C(=O)N[C@@H](CC(C)C)C(=O)N[C@@H](CCCN=C(N)N)C(=O)N[C@@H](CCCCN)C(=O)N[C@@H](CC(C)C)C(=O)O)[C@@H](C)CC)C(C)C)[C@@H](C)CC [IGKKFKRIVKRIKKWLRKL] | – | – | 4 (≈ 9.76 µg/mL) | 4 (≈ 9.76 µg/mL) | 4 (≈ 9.76 µg/mL) | 2 (≈ 4.88 µg/mL) | 2 (≈ 4.88 µg/mL) | 2 (≈ 4.88 µg/mL)
7 | CC[C@H](C)[C@H](N)C(=O)N[C@@H](CC(C)C)C(=O)NCC(=O)N[C@@H](CCCCN)C(=O)N[C@H](C(=O)N[C@@H](C)C(=O)N[C@@H](CCC(=O)O)C(=O)NCC(=O)N[C@H](C(=O)N[C@@H](CCCCN)C(=O)N[C@@H](CO)C(=O)N[C@@H](CC(C)C)C(=O)N[C@@H](Cc1ccccc1)C(N)=O)[C@@H](C)CC)[C@@H](C)CC [ILGKIAEGIKSLF] | – | – | ≥ 64 | ≥ 64 | ≥ 32 | ≥ 64 | – | ≥ 64
8 | CC[C@H](C)[C@H](N)C(=O)N[C@@H](CC(C)C)C(=O)N[C@@H](CCCCN)C(=O)N[C@@H](Cc1c[nH]c2ccccc12)C(=O)N[C@@H](CCCCN)C(=O)N[C@@H](Cc1c[nH]c2ccccc12)C(=O)N[C@@H](CCCCN)C(=O)N[C@@H](Cc1c[nH]c2ccccc12)C(=O)N[C@@H](Cc1c[nH]c2ccccc12)C(=O)N[C@@H](CCCCN)C(=O)N[C@@H](Cc1c[nH]c2ccccc12)C(=O)N[C@@H](CCCN=C(N)N)C(=O)N[C@@H](CCCN=C(N)N)C(N)=O [ILKWKWKWWKWRR] | – | – | 5 (≈ 10 µg/mL) | 5 (≈ 10 µg/mL) | 5 (≈ 10 µg/mL) | 2.5 (≈ 5 µg/mL) | 2.5 (≈ 5 µg/mL) | 2.5 (≈ 5 µg/mL)
